Results on four compounds are retold here after patent US9957546B2, “Vivo detection of phospholipase activation” (THE TRUSTEES OF THE UNIVERSITY OF PENNSYLVANIA, priority 2008, dated 2018).

A value given as a limit tells only on which side of the number the result lay.

Data set [1] in a line: Quenching of Pyro fluorescence (fluorescence emission spectra). Type of data set: physicochemical. An excerpt:
In Pyro-PL-BHQ, BHQ acts as an effective quencher of Pyro fluorescence, reducing the fluorescence emission relative to Pyro-PL between 25-fold (for λex=675, λem=725 nm) and 45-fold (for λex=418, λem=695 nm) (FIG. 14).

Data set [2] deals with DU145 prostate cells. Description: Cell uptake and in situ activation, laser confocal microscopy. Type of data set: cell-based, human. As to conditions: 10 mM PB, 6 h.
The test system of data set [3] is PC-PLC. As to conditions: Amplex Red, resorufin fluorescence. The source says: To validate the presence of PC-PLC activity in DU145 tumor xenografts, the Amplex Red PC-PLC assay kit (Molecular Probes) was used to measure PC-PLC activity in extracts of excised tumors.
Data set [4] concerns the target PC-PLC (Bacillus cereus, UniProt P09598). The procedure: Phospholipase (0.5 to 5 units) are added to 1 μM fluorophore-BHQ in PtdCho vesicles_(MF=0.05) to yield a final volume of 100 μL. Initial velocities are measured as a function of enzyme concentration. For bulk kinetics, an enzyme concentration that gives a linear response is chosen. The lipid dispersions is diluted in buffer such that the fluorophore-BHQ concentration varies from 0.3-3 μM. The temperature is held at 37° C. and phospholipase added to a total volume of 100 μL. The released fluorescence is measured and the initial velocities recorded as a function of bulk lipid concentration. A Lineweaver-Burke plot of 1/V0 vs 1/[S] gives a straight line with […] and y intercept of 1/Vmax. For interfacial kinetics, lipid dispersions of fluorophore-BHQ and PtdCho are diluted in Triton X-100 with the total lipid concentration held at 20 μM. The ratios of fluorophore-BHQ to PtdCho are held constant, but varied relative to the MF of Triton with a total MF of fluorophore-BHQ of =0.01-0.05). Initial velocities are recorded as a function of concentration, and kinetic parameters are calculated.
Activity, in RFU/min/mg, was measured as a function of D609 concentration after the addition of 0.5 U PC-PLC (FIG. 2D).

Data set [5] is described as follows: Incorporation of Pyro-PL into PtdCho vesicles (self quenching/aggregation). It counts as physicochemical. The following applies: 1 μM Pyro-PL, [PtdCho]>200 μM. Here is the method:
A measured amount of Pyro-PL-BHQ or Pyro-PL (ε=110,000 M^−1 cm^−1 at 410 nm) was combined with PtdCho (chicken egg, Avanti Polar Lipids, Inc., Alabaster, Ala.) in chloroform and dried under a stream of nitrogen.
In order to determine the mole fraction (MF) at which all fluorophore can be assumed to be completely incorporated and intercalated into the PtdCho vesicles, an experiment was conducted in which the concentration of PtdCho was varied while Pyro-PL concentration was held constant at 1 μM (FIG. 4A). The fluorescence intensity increases as the Pyro-PL disperses into the PtdCho vesicles. The fluorescence plateaus at the point at which aggregation is negligible.

The nature of data set [6]: In vivo distribution of Pyro-PL (Maestro spectral deconvolution, ex vivo IVIS organ imaging). Also on record: species or system mice. The procedure:
Methods for separation of probe fluorescence and autofluorescence have been developed that result in a more accurate detection of in vivo probe fluorescence. In FIG. 11, mice injected with the permanently fluorescent Pyro-PL are imaged with the CRI Maestro System, and the resulting images resolved into probe and autofluorescence on the basis of emission spectrum deconvolution. These images confirm that Pyro-PL localizes in the tumor within minutes, and persists for about 3 hours, consistent with FIGS. 12A and 13A. By 2 hours, the probe is also being removed from circulation, with concentration first in the liver, and then in the intestine for excretion in the stool.

Data set [7] in a line: Tolerability of Pyro-PL in mice. Type of data set: in vivo.

Sequence of PC-PLC (Bacillus cereus, UniProt P09598) (P09598 39-283 limits assumed): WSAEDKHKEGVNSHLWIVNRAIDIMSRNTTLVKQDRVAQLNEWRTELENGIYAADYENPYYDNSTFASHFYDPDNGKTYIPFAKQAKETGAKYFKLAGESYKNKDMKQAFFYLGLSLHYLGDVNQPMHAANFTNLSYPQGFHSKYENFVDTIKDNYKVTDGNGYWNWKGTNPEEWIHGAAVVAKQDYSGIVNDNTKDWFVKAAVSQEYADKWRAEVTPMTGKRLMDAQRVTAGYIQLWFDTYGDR

As for `C=Cc1c(C)c2cc3nc(c4c5[nH]c(cc6nc(cc1[nH]2)C(C)=C6CC)c(C)c5C(=O)C4)C(CCC(=O)NCCCCCC(=O)OCC(COP(=O)([O-])OCC[N+](C)(C)C)OC(=O)CCCCCNC(=O)CCC1c2nc(cc4[nH]c(cc5nc(cc6[nH]c7c2CC(=O)c7c6C)C(CC)=C5C)c(C=C)c4C)C1C)C3C` (stereo not drawn) [PyroPyro-PL], the “quenching efficiency (second Pyro as acceptor)” value in data set [1] is reported as around 4 fold.
Take phenylbutyrate [PB]: the “effect on Pyro-PL-BHQ fluorescence in cells” value in data set [2] is reported as “fluorescence is increased”.
A word on the IC50: it is the concentration needed to halve the response being measured. Turning to `S=C([S-])OC1CC2CC1C1CCCC21.[K+]` (stereo not drawn) [D609], the “PC-PLC activity in tumor extracts as a function of D609 concentration” value in data set [3] was “decrease as a function of D609 concentration”. Moreover, the “Inhibition of PC-PLC hydrolysis of Pyro-PL-BHQ at 500 μM D609” value in data set [4] (500 μM D609, 0.5 U PC-PLC) is reported as “Complete inhibition”. The “Fluorescence release from Pyro-PL-BHQ/PtdCho vesicles in presence of inhibitor” value in data set [4] (FIG. 3A) is “inhibited”. For the same compound, the 50% inhibitory concentration (IC50) in data set [4] (read-out: IC50 of inhibition of PC-PLC activity toward Pyro-PL-BHQ, 1 μM Pyro-PL-BHQ, MF 0.003 in egg-PtdCho dispersions, 0.5 U PC-PLC) turned out to be 34 ± 8 µM. In addition, in data set [4] (read-out: Ki (x-intercept of Km(app)/Vmax(app) vs. D609), Lineweaver-Burke plot of inhibition using 8, 50, 100 μM D609), the Ki amounted to 250 µM.
For `C=Cc1c(C)c2cc3nc(c4c5[nH]c(cc6nc(cc1[nH]2)C(C)=C6CC)c(C)c5C(=O)C4)C(CCC(=O)OC(COC(=O)CCCCCCCCCCCCCCC)COP(=O)(O)OCCN)C3C` (stereo not drawn) [Pyro-PL], in data set [5], the “Pyro-PL mole fraction (MF) at which fluorescence plateaus (aggregation negligible)” value was below 0.005. For the same compound, the “organ fluorescence at 2 h” value in data set [6] (2 h) is reported as “majority of the fluorescence appears in the liver”. The “organ fluorescence ex vivo at 24 h” value in data set [6] (IVIS, 24 h) was “major fluorescence persisted in the liver, kidney and digestive tract”. Besides, the “time of accumulation in the tumor” value in data set [6] (Maestro system) is reported as at most 10 min. The tolerability entry in data set [7] was “well tolerated by mice”.
